Source: patent publication US10253069B2, “Compositions and methods for regulating arterial tone” (University of Virginia Patent Foundation, priority 2012, dated 2019)

Key:
[1] = Blood pressure by radio telemetry, C57BL/6 mice; type: in vivo, mouse; conditions: single bolus 0.125 mg/kg intraperitoneal
Description: Blood pressure was measured in conscious wildtype or eNOS^−/− mice under unrestrained conditions using implanted radio telemetry units. Continuous blood pressure measurements were recorded using Dataquest A.R.T. 20 software (DSI). To do so, mice were anesthetized with isoflurane and the catheters (TA11PA-C10, Data Sciences International (DSI)) were implanted in the left carotid artery. The catheter was tunneled through to the radiotransmitter, which was placed in a subcutaneous pouch along the flank. Mice were allowed to recover for seven days after surgery to regain normal circadian rhythms before arterial pressure measurements and experiments were initiated. Thirty minutes prior to peptide injection, continuous blood pressure readings were recorded. Then, a bolus injection of Scr X or Hb α X peptide, or saline was administered via an intraperitoneal injection at 0.125 mg/kg. One hour post-injection, blood pressure was recorded for a 30 minute duration. The change in blood pressure was calculated by subtracting the average pre injection blood pressure from the average post-injection blood pressure.

eNOS/Hb α interaction = biological target: T1, eNOS/Hb α interaction (Homo sapiens, UniProt P29474); assay: Purified eNOS and Hb α protein interaction (co-immunoprecipitation, Western blot); type: binding
T1 construct: purchased Origene
T1 sequence (P29474 2-1203 limits assumed): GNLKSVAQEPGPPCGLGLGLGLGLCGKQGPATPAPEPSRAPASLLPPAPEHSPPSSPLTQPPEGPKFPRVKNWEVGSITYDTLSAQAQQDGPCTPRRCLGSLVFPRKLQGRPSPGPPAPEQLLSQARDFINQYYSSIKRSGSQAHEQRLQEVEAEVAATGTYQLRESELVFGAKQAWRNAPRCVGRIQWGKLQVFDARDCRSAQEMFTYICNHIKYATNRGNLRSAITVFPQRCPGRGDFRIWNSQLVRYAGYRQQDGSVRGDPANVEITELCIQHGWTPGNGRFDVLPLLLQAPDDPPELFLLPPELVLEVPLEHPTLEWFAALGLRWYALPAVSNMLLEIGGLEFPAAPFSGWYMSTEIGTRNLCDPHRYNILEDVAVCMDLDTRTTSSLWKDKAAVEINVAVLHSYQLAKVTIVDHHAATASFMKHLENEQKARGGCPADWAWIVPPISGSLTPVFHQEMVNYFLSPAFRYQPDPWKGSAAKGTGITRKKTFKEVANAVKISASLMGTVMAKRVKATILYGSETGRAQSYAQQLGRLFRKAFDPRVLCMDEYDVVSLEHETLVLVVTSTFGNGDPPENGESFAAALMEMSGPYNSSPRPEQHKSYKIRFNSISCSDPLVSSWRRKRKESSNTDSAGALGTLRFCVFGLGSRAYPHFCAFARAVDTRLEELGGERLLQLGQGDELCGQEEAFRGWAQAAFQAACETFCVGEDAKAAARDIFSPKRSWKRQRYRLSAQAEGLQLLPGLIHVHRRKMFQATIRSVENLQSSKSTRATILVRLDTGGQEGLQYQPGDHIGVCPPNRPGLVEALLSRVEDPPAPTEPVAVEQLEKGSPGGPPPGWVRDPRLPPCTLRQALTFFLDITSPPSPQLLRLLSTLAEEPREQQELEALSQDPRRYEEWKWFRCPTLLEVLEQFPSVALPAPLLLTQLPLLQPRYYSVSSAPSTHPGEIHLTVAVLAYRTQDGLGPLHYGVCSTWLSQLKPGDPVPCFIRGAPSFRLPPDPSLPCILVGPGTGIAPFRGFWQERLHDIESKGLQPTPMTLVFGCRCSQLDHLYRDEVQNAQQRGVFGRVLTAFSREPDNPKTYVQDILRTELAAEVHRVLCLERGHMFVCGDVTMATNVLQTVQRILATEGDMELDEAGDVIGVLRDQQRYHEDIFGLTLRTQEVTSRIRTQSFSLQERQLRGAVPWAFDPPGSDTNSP
Description: Purified Flag-eNOS was purchased from Origene and isolated Hb α chains were generated as previously described^9. Co-immunoprecipitation studies were performed by incubating 1 μg of Flag-eNOS with 5 μmol/L of each peptide (tat-only, Scr X or Hb α X) for 30 minutes at 37° C. while shaking. Then, 1 μg of isolated Hb α chains were added to the Flag-eNOS/peptide complex for an additional 30 minutes at 37° C. shaking. Anti-Flag nickel beads, blocked with 1% bovine albumin serum for 1 hour, were added to each condition for an additional hour with agitation. Proteins were washed 3× with PBS for 15 minutes and purified protein-protein complexes were precipitated using a strong magnet. The nickel beads were incubated with 5×SDS PAGE buffer to elute proteins off the beads. Samples were subjected to Western blot analysis to determine peptide-induced disruption of Hb α and eNOS binding.

abdominal aortic rings = assay: Abdominal aorta ring assay; set-up: species or system mouse; conditions: compared to untreated aortas or aortas treated with Scr X
Description: Abdominal aortas were isolated, cut into 2 mm wide rings and mounted on a DMT myograph system with low bath volumes as previously described^16. Briefly, rings were stretched at 1.2× resting length in Krebs solution and allowed to equilibrate for 30 min at 37° C. prior to depolarization with […] K^+ [i]. Following the high K^+ contraction, rings were returned to Krebs solution and incubated with 5 μmol/L Scr X or Hb α X peptide for 20 minutes. Cumulative concentrations of phenylephrine (PE) (10^−10-10^−4 mol/L) were added to the rings and the magnitude of the tension response measured in milli-newtons.

[2] = test system: human coronary endothelial cells; assay: Nitrite measurements from media of coronary endothelial cells; type: cell-based
Description: Primary coronary endothelial cells (Lonza) were cultured on plastic 6-well dishes as previously described^9. For studies involving basal NO release, endothelial cells were incubated with 5 μmol/L of Scr X or Hb α X for 20 minutes followed by medium collection and nitrite measurements as described below. For bradykinin studies, coronary endothelial cells were grown to confluence followed by serum starvation overnight in a cocktail of Lonza EGM-2 medium supplemented with EGM-2 bullet kit and Opti MEM reduced growth medium using a ratio of 1:9 respectively. The next day, endothelial cells were incubated with Scr X or Hb α X peptide for 20 minutes followed by the addition of 10 μM bradykinin (Sigma) for 5 minutes followed by medium collection for nitrite measurements as described below.
Quantitation of nitrite in culture medium was measured by chemiluminescence using a Sievers nitric oxide analyzer according to manufacturer's instructions. Quantitation of peaks was analyzed using Origin Pro 6.0 as previously described^9.

With “Peptide LSFPTTKTYF (SEQ ID NO:2), first ten amino acids of the Hb α sequence, with HIV-tat tag YGRKKRRQRRR at the N-terminus [Hb α X]” the “Systolic, diastolic and mean arterial blood pressure” value [1] was “significant decrease”, the “eNOS/Hb α interaction” value (eNOS/Hb α interaction; 5 μmol/L peptide, Flag-eNOS and purified Hb α chains) was “significantly disrupted” and the Inhibition of binding (eNOS/Hb α interaction; purified Hb α and eNOS protein) was greater than 90%. The “Phenylephrine dose response curves” value (abdominal aortic rings) was “no significant change”, the “Nitrite accumulation following stimulation with bradykinin” value ([2]; 10 μM bradykinin, 5 minutes, Scr X vs Hb α X) was “no change” and the “Accumulation of nitrite in the culture medium, basal” value ([2]; unstimulated cells) was “no differences”.
